Measurements from the CheMixHub viscosity set.

Assay: xn = mol fraction of the nth substance listed

NC=O + CCCO
Conditions	viscosity [mPa·s]
293.15 K, 101 kPa, x1 = 0.0557	2.16
293.15 K, 101 kPa, x1 = 0.1172	2.201
293.15 K, 101 kPa, x1 = 0.1854	2.285
293.15 K, 101 kPa, x1 = 0.2615	2.419
298.15 K, 100 kPa, x1 = 0.0744	1.97
298.15 K, 100 kPa, x1 = 0.116	1.98
298.15 K, 100 kPa, x1 = 0.1885	2.07
298.15 K, 100 kPa, x1 = 0.294	2.27
298.15 K, 100 kPa, x1 = 0.3225	2.33
298.15 K, 100 kPa, x1 = 0.331	2.4
298.15 K, 100 kPa, x1 = 0.4121	2.54
298.15 K, 100 kPa, x1 = 0.4562	2.61
298.15 K, 100 kPa, x1 = 0.4974	2.73
298.15 K, 100 kPa, x1 = 0.5225	2.76
298.15 K, 100 kPa, x1 = 0.6129	2.96
298.15 K, 100 kPa, x1 = 0.6877	3.09
298.15 K, 100 kPa, x1 = 0.7379	3.17
298.15 K, 100 kPa, x1 = 0.8232	3.28
298.15 K, 100 kPa, x1 = 0.8536	3.31
298.15 K, 100 kPa, x1 = 0.9169	3.36
298.15 K, 100 kPa, x1 = 0.9506	3.34
298.15 K, 101 kPa, x1 = 0.0557	1.938
298.15 K, 101 kPa, x1 = 0.1172	1.976
298.15 K, 101 kPa, x1 = 0.1854	2.052
298.15 K, 101 kPa, x1 = 0.2615	2.181
303.15 K, 101 kPa, x1 = 0.0557	1.742
303.15 K, 101 kPa, x1 = 0.1172	1.775
303.15 K, 101 kPa, x1 = 0.1854	1.846
303.15 K, 101 kPa, x1 = 0.2615	1.962
303.15 K, 101 kPa, x2 = 0.0999	2.877
303.15 K, 101 kPa, x2 = 0.2004	2.813
303.15 K, 101 kPa, x2 = 0.3002	2.706
303.15 K, 101 kPa, x2 = 0.4	2.554
303.15 K, 101 kPa, x2 = 0.5	2.378
303.15 K, 101 kPa, x2 = 0.6	2.191
303.15 K, 101 kPa, x2 = 0.6998	2.022
303.15 K, 101 kPa, x2 = 0.8	1.87
303.15 K, 101 kPa, x2 = 0.9001	1.756
303.15 K, 101.3 kPa, x1 = 0.0961	1.6
303.15 K, 101.3 kPa, x1 = 0.1755	1.7
303.15 K, 101.3 kPa, x1 = 0.2494	1.8
303.15 K, 101.3 kPa, x1 = 0.3192	1.9
303.15 K, 101.3 kPa, x1 = 0.3902	2
303.15 K, 101.3 kPa, x1 = 0.4629	2.1
303.15 K, 101.3 kPa, x1 = 0.5342	2.2
303.15 K, 101.3 kPa, x1 = 0.614	2.4
303.15 K, 101.3 kPa, x1 = 0.6891	2.6
303.15 K, 101.3 kPa, x1 = 0.7654	2.7
303.15 K, 101.3 kPa, x1 = 0.8114	2.7
303.15 K, 101.3 kPa, x1 = 0.921	2.8
308.15 K, 101 kPa, x1 = 0.0557	1.584
308.15 K, 101 kPa, x1 = 0.1172	1.618
308.15 K, 101 kPa, x1 = 0.1854	1.678
308.15 K, 101 kPa, x1 = 0.2615	1.798
308.15 K, 101 kPa, x2 = 0.0999	2.554
308.15 K, 101 kPa, x2 = 0.2004	2.492
308.15 K, 101 kPa, x2 = 0.3002	2.393
308.15 K, 101 kPa, x2 = 0.4	2.261
308.15 K, 101 kPa, x2 = 0.5	2.11
308.15 K, 101 kPa, x2 = 0.6	1.949
308.15 K, 101 kPa, x2 = 0.6998	1.802
308.15 K, 101 kPa, x2 = 0.8	1.669
308.15 K, 101 kPa, x2 = 0.9001	1.569
308.15 K, 101.3 kPa, x1 = 0.0961	1.4
308.15 K, 101.3 kPa, x1 = 0.1755	1.5
308.15 K, 101.3 kPa, x1 = 0.2494	1.5
308.15 K, 101.3 kPa, x1 = 0.3192	1.6
308.15 K, 101.3 kPa, x1 = 0.3902	1.7
308.15 K, 101.3 kPa, x1 = 0.4629	1.8
308.15 K, 101.3 kPa, x1 = 0.5342	1.9
308.15 K, 101.3 kPa, x1 = 0.614	2.1
308.15 K, 101.3 kPa, x1 = 0.6891	2.2
308.15 K, 101.3 kPa, x1 = 0.7654	2.3
308.15 K, 101.3 kPa, x1 = 0.8114	2.4
308.15 K, 101.3 kPa, x1 = 0.921	2.5
313.15 K, 101 kPa, x1 = 0.0557	1.349
313.15 K, 101 kPa, x1 = 0.1172	1.388
313.15 K, 101 kPa, x1 = 0.1854	1.457
313.15 K, 101 kPa, x1 = 0.2615	1.595
313.15 K, 101 kPa, x2 = 0.0999	2.285
313.15 K, 101 kPa, x2 = 0.2004	2.223
313.15 K, 101 kPa, x2 = 0.3002	2.133
313.15 K, 101 kPa, x2 = 0.4	2.015
313.15 K, 101 kPa, x2 = 0.5	1.881
313.15 K, 101 kPa, x2 = 0.6	1.74
313.15 K, 101 kPa, x2 = 0.6998	1.61
313.15 K, 101 kPa, x2 = 0.8	1.494
313.15 K, 101 kPa, x2 = 0.9001	1.407
313.15 K, 101.3 kPa, x1 = 0.0961	1.3
313.15 K, 101.3 kPa, x1 = 0.1755	1.3
313.15 K, 101.3 kPa, x1 = 0.2494	1.4
313.15 K, 101.3 kPa, x1 = 0.3192	1.5
313.15 K, 101.3 kPa, x1 = 0.3902	1.6
313.15 K, 101.3 kPa, x1 = 0.4629	1.7
313.15 K, 101.3 kPa, x1 = 0.5342	1.7
313.15 K, 101.3 kPa, x1 = 0.614	1.9
313.15 K, 101.3 kPa, x1 = 0.6891	2
313.15 K, 101.3 kPa, x1 = 0.7654	2.1
313.15 K, 101.3 kPa, x1 = 0.8114	2.1
313.15 K, 101.3 kPa, x1 = 0.921	2.2
318.15 K, 101 kPa, x1 = 0.0557	1.219
318.15 K, 101 kPa, x1 = 0.1172	1.263
318.15 K, 101 kPa, x1 = 0.1854	1.333
318.15 K, 101 kPa, x2 = 0.0999	2.056
318.15 K, 101 kPa, x2 = 0.2004	1.995
318.15 K, 101 kPa, x2 = 0.3002	1.912
318.15 K, 101 kPa, x2 = 0.4	1.804
318.15 K, 101 kPa, x2 = 0.5	1.685
318.15 K, 101 kPa, x2 = 0.6	1.561
318.15 K, 101 kPa, x2 = 0.6998	1.447
318.15 K, 101 kPa, x2 = 0.8	1.344
318.15 K, 101 kPa, x2 = 0.9001	1.266
318.15 K, 101.3 kPa, x1 = 0.0961	1.1
318.15 K, 101.3 kPa, x1 = 0.1755	1.1
318.15 K, 101.3 kPa, x1 = 0.2494	1.2
318.15 K, 101.3 kPa, x1 = 0.3192	1.3
318.15 K, 101.3 kPa, x1 = 0.3902	1.4
318.15 K, 101.3 kPa, x1 = 0.4629	1.5
318.15 K, 101.3 kPa, x1 = 0.5342	1.5
318.15 K, 101.3 kPa, x1 = 0.614	1.6
318.15 K, 101.3 kPa, x1 = 0.6891	1.7
318.15 K, 101.3 kPa, x1 = 0.7654	1.8
318.15 K, 101.3 kPa, x1 = 0.8114	1.9
318.15 K, 101.3 kPa, x1 = 0.921	1.9
323.15 K, 101 kPa, x2 = 0.0999	1.86
323.15 K, 101 kPa, x2 = 0.2004	1.801
323.15 K, 101 kPa, x2 = 0.3002	1.722
323.15 K, 101 kPa, x2 = 0.4	1.624
323.15 K, 101 kPa, x2 = 0.5	1.517
323.15 K, 101 kPa, x2 = 0.6	1.405
323.15 K, 101 kPa, x2 = 0.6998	1.304
323.15 K, 101 kPa, x2 = 0.8	1.212
323.15 K, 101 kPa, x2 = 0.9001	1.141
323.15 K, 101.3 kPa, x1 = 0.0961	0.92
323.15 K, 101.3 kPa, x1 = 0.1755	0.95
323.15 K, 101.3 kPa, x1 = 0.2494	1
323.15 K, 101.3 kPa, x1 = 0.3192	1.05
323.15 K, 101.3 kPa, x1 = 0.3902	1.1
323.15 K, 101.3 kPa, x1 = 0.4629	1.2
323.15 K, 101.3 kPa, x1 = 0.5342	1.3
323.15 K, 101.3 kPa, x1 = 0.614	1.3
323.15 K, 101.3 kPa, x1 = 0.6891	1.4
323.15 K, 101.3 kPa, x1 = 0.7654	1.5
323.15 K, 101.3 kPa, x1 = 0.8114	1.5
323.15 K, 101.3 kPa, x1 = 0.921	1.6
